Measurements: patent US20120196919A1, “EX-VIVO TREATMENT OF IMMUNOLOGICAL DISORDERS WITH PKC-THETA INHIBITORS” (NEW YORK UNIVERSITY, priority 2009, published 2012)

Tests used:
[1] = system: Treg cells purified from RA patients; assay: Suppression of IFN-gamma from autologous Teff by Treg purified from RA patients; format: cell-based, human; conditions: Treg from 25 RA patients, 1 microM 30 min, Treg/Teff 1:3, 24-48 h (FIG. 5d)
Procedure: Colitis was induced in C57BL/10.PL TCR alpha^−/−beta^−/− mice as described in Methods summary. 5a—numbers of mice were 5 (PBS), 8 (Teff), 7 (Teff/Treg control), 7 (Teff/Treg PKC-theta inhibitor). 5b-Histology slides of distal colon for the different groups. Normal histology is observed in PKC-theta treated mice. 5c, 5d-Freshly purified Treg from healthy donors and RA patients were treated or not with PKC-theta inhibitor for 30 min at 1 microM, washed three times, mixed with CD4^+CD25^− T cells at ratio 1:3, and plated on anti-CD3 mAb. The supernatants were analyzed for IFN-gamma after 24-48 hours. Combined data of three independent experiments are presented. % Treg-mediated inhibition was calculated as: 1−level of IFN-gamma in presence of Treg/level of IFN-gamma in absence of Treg)φ100%. P values were calculated by t-test. […]
(§1) CD4^+CD25^+ Treg and CD4^+CD25^− Teff cells were purified from the peripheral blood of healthy human donors or from 25 patients with Rheumatoid arthritis in different stages (accordingly to disease activity score (DAS)) as described in the literature M. L. Prevoo, et al., Arthritis and rheumatism, 1995, 38, 44; A. Zanin-Zhorov, et al., J. Clin. Invest, 2006, 116, 2022). […] Cytokine secretion was determined by ELISA as previously described A. Zanin-Zhorov, et al., ibid., 2006), using Human IFN-gamma Cytose™ (Biosource; Camarillo, Calif.). […]

PKC-theta = PKC-theta (Homo sapiens, UniProt Q04759); assay: luciferase assay for inhibition of the kinase activity of PKC-theta; format: biochemical; conditions: luciferase assay of US 2005/0124640
Procedure: The preparation of these compounds and the luciferase assay used to determine the IC50 for inhibition of the kinase activity of PKC-theta are described in US Patent Application Publication number 2005/0124640. For the in vitro and ex vivo assays above, compounds were dissolved in DMSO. T cells were pretreated with indicated concentrations of the inhibitors or DMSO control for 30 min at 37° C. and washed three times.

CD4+CD25+ Treg cells [2] = assay: Treg/Teff co-culture on anti-CD3 mAb, cell proliferation by Alamar Blue; format: cell-based, human; conditions: Treg treated 0.001-1 microM 30 min, washed, Treg/Teff 1:9, anti-CD3; proliferation after 96 h (FIG. 1b)
Procedure: (§2) Treg cells and CD4^+CD25^− Teff (non-Treg) cells were treated with Compound Ia at 0.001-1 microM (a-b) for 30 min, or at 1 microM for 0-60 min (c). Treated cells were mixed with CD4^+CD25^− T (Teff) cells at 1:9 ratio and plated on immobilized anti-CD3 mAb. The supernatants were analyzed for IFN-gamma after 24-48 hours (a and c). Cell proliferation was determined after 96 hours (b). Average of four different experiments is shown.
CD4^+CD25^+ regulatory T cells (Tregs) suppress the function of CD4^+ and CD8^+ effector cells (Teff) through an antigen receptor and cell contact mechanism. […] IFN-gamma secretion and cell proliferation were measured after 24 and 96 hours respectively. […]
as §1, with “Calif.). Proliferation was assessed by Alamar Blue™ assay (Invitrogen) as previously described (S. A. Ahmed, et al., J. immunological Methods, 1994, 170, 211-224).” for “Calif.).”

CD4+CD25+ Treg cells [3] = assay: T cell transfer model of colitis with ex vivo treated Treg; format: in vivo, C57BL/10.PL TCR alpha-/-beta-/- mice; conditions: inhibitor treated Treg
Procedure: Colitis was induced in C57BL/10.PL TCR alpha^−/−beta^−/− mice as described in Methods summary. 5a—numbers of mice were 5 (PBS), 8 (Teff), 7 (Teff/Treg control), 7 (Teff/Treg PKC-theta inhibitor). 5b-Histology slides of distal colon for the different groups. Normal histology is observed in PKC-theta treated mice. 5c, 5d-Freshly purified Treg from healthy donors and RA patients were treated or not with PKC-theta inhibitor for 30 min at 1 microM, washed three times, mixed with CD4^+CD25^− T cells at ratio 1:3, and plated on anti-CD3 mAb. The supernatants were analyzed for IFN-gamma after 24-48 hours. Combined data of three independent experiments are presented. % Treg-mediated inhibition was calculated as: 1−level of IFN-gamma in presence of Treg/level of IFN-gamma in absence of Treg)φ100%. P values were calculated by t-test.
Next, we determined the ability of PKC-theta inhibitor Ia to up-regulate Treg function in vivo using a colitis model in TCR alpha^−/−beta^−/− mice induced by transfer of effector CD4^+CD25^−CD45RB^+ Teff cells (F. Powrie, et al., J. Exp. Med. 1996, 183, 2669).
[…] Disease progression was monitored by body weight loss, diarrhea and histology analysis as previously described (F. Powrie, et al., J. Exp. Med. 1996, 183, 2669). P values were determined by Mann-Whitney test or two-tailed t-test by using the GraphPad Prism software (San Diego, Calif.).

CD4+CD25+ Treg cells [4] = assay: Treg/Teff co-culture on anti-CD3 mAb, IFN-gamma secretion by ELISA; format: cell-based, human
Procedure: as §2
Treg were treated with 1 microM PKC-theta inhibitors with different IC50 values as indicated on graph. Treated cells were mixed with CD4^+CD25^− T (Teff) cells at 1:9 ratio and plated on immobilized anti-CD3 mAb. The supernatants were analyzed for IFN-gamma after 24-48 hours. An average of four different experiments is shown. As shown in the graph, the enhancement of suppressive effect on IFN-gamma secretion generally correlates with the potency of the inhibitors.
Treated Treg and non-Treg, or siRNA-transfected Treg were mixed with CD4^+CD25^− T (Teff) cells at 1:9 ratio and plated on immobilized anti-CD3 mAb. The supernatants were analyzed for IFN-gamma after 24-48 hours. An average of four different experiments is shown.
CD4^+CD25^+ regulatory T cells (Tregs) suppress the function of CD4^+ and CD8^+ effector cells (Teff) through an antigen receptor and cell contact mechanism. […] We investigated whether inhibition of PKC-theta may affect the suppressive function of human CD4^+CD25^+ Treg cells in vitro. For this purpose, we treated CD4^+CD25^+ Treg or CD4^+CD25^− Teff cells (Treg or non-Treg respectively in FIGS. 1a and 1b) with a specific PKC-theta inhibitor, namely, Compound Ia, washed and cultured the cells with untreated Teff cells in a ratio of 1:9 on stimulatory anti-CD3 antibodies. IFN-gamma secretion and cell proliferation were measured after 24 and 96 hours respectively. […] Moreover, the effect of PKC-theta inhibitor on Treg function was time-dependent; maximal levels of enhanced suppressive function were achieved after 30 min of Treg treatment with the compound (FIG. 1c).
as §1, with “Calif.). Proliferation was assessed by Alamar Blue™ assay (Invitrogen) as previously described (S. A. Ahmed, et al., J. immunological Methods, 1994, 170, 211-224).” for “Calif.).”

PKC-theta, sequence (Q04759 whole entry): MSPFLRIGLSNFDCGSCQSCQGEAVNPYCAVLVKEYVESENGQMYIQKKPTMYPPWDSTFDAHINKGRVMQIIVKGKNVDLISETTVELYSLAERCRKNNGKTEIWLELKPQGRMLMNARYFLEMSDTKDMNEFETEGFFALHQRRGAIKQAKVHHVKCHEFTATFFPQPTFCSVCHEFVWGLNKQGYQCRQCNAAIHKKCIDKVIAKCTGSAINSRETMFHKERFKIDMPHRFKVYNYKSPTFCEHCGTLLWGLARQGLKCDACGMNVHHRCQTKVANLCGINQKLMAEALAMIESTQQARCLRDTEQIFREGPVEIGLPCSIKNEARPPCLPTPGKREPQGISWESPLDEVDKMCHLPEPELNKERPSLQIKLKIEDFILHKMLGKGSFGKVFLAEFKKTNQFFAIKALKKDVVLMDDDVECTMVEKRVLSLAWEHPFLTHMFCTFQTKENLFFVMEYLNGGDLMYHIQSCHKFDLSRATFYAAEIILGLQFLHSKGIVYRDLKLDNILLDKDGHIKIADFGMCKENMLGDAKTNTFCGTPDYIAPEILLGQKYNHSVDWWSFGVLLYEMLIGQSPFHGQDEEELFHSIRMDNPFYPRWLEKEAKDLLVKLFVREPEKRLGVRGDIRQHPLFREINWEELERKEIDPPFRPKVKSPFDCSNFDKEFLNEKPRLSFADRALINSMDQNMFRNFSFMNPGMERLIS

NC[C@H]1CC[C@H](CNc2nc(NCc3ccccc3OC(F)(F)F)ncc2[N+](=O)[O-])CC1 [Compound Ia]
suppressive function of Treg cells purified from RA patients (IFN-gamma) [1]: significantly increased | IC50 (PKC-theta): 0.7 nM | suppressive ability of Treg cells (cell proliferation) (CD4+CD25+ Treg cells [2]): significantly up-regulated | mice with normal weight gain and normal histology of the distal colon (CD4+CD25+ Treg cells [3]; 1:4 ratio of Treg/Teff): 7 of 8 | protection of the recipient mice from colitis (CD4+CD25+ Treg cells [3]; 1:4 ratio of Treg/Teff (FIGS. 5a and 5b)): ~100% | induction of suppressive activity in treated Teff (non-Treg) added to untreated responder Teff (CD4+CD25+ Treg cells [4]; CD4+CD25- Teff treated, 1:9 ratio (FIGS. 1a and 1b)): does not induce suppressive activity | suppressive ability of Treg cells (IFN-gamma production by Teff) (CD4+CD25+ Treg cells [4]; Treg treated 0.001-1 microM 30 min, washed, Treg/Teff 1:9, anti-CD3, IFN-gamma after 24 h (FIG. 1a)): significantly up-regulated | treatment time for maximal levels of enhanced suppressive function (CD4+CD25+ Treg cells [4]; Treg treated at 1 microM for 0-60 min, IFN-gamma readout (FIG. 1c)): 30 min | ability of Treg cells to inhibit IFN-gamma secretion in Teff cells (CD4+CD25+ Treg cells [4]; treated or siRNA-transfected Treg, Treg/Teff 1:9, 24-48 h (FIG. 4)): increased

N[C@H]1CC[C@H](CNc2nc(NCc3ccccc3OC(F)(F)F)ncc2[N+](=O)[O-])CC1 [Ib]
IC50 (PKC-theta): 1 nM

O=[N+]([O-])c1cnc(SCc2ccccc2Cl)nc1NCC1CCNCC1 [Ic]
IC50 (PKC-theta): 8 nM

O=[N+]([O-])c1cnc(NCC2CCNCC2)nc1NCc1ccccc1OC(F)(F)F [Id]
IC50 (PKC-theta): 300 nM

N[C@H]1CC[C@H](CNc2nc(NCc3ccccc3OC(F)(F)F)ccc2[N+](=O)[O-])CC1 [Ie]
IC50 (PKC-theta): 1000 nM
